Earlier results in patent US20100322961A1, “Intranasal Drug Delivery System” (priority 2007, published 2010).

Conditions: pure substance; background statement

In the case of `COc1cc(CNC(=O)CCCC/C=C/C(C)C)ccc1O` [capsaicin], the “pungency (Scoville heat units)” value is listed as 15,000,000-16,000,000 Scoville units.
